Source: patent US20180116960A1, “TREATING FUNGAL INFECTION OF THE NAIL UNIT” (priority 2009, published 2018)
Structures can show the parent of a compound that is named as a salt.

What was measured:
[1] = solubility of terbinafine HCl in solvents; format: physicochemical; conditions: thermodynamic from solid
Procedure: (§1) With 0.1% Tween-80 in water, the solubility of terbinafine HCl in terbinafine HCl-PEG 3350 blend (75/25, W/W) was 4 mg/mL. […] The final pH was 3.0.
(§2) When DMSO is used as the solvent, the solubility of terbinafine HCl was close to 100 mg/mL. […] The solution was made by weighing 100 mg of terbinafine HCl powder in a glass vial and then adding 1 ml of DMSO solvent. The glass vial was sealed and vortexed for 5 minutes with a mini vortexor. The resulting solution was clear.

[2] = stability of terbinafine HCl solutions on standing; format: physicochemical
Procedure: as §1, §2

CN(C/C=C/C#CC(C)(C)C)Cc1cccc2ccccc12 [terbinafine HCl]
solubility at 5 min ([1]; DMSO, organic solvent or mixture): ~100000 µg/mL
solubility ([1]; aqueous buffer, phosphate-buffered saline (PBS 1×, starting pH 7.4), final pH 4.2): 780 µg/mL
solubility ([1]; aqueous with cosolvent or surfactant or cyclodextrin, 0.1% Tween-80 in water, terbinafine HCl in terbinafine HCl-PEG 3350 blend (75/25, W/W), final pH 3.0): 4000 µg/mL
appearance of solution on standing ([2]; 0.1% Tween-80 in water, room temperature, 5 days): clear but turned cloudy
time the solution was stable ([2]; DMSO solution): up to 7 days
concentration of solution on storage ([2]; DMSO solution, after 14 days up to 22 days): remained constant
concentration of solution on storage ([2]; DMSO solution, at 14 days): 90000 µg/mL
